The values that follow come from patent US10633374B2, “Small molecule based antibody-recruiting compounds for cancer treatment” (YALE UNIVERSITY, priority 2015, dated 2020).

One assay addresses T1, uPAR (uPA binding site) (Homo sapiens, UniProt Q03405).
T1 construct: purchased R&D systems
Kind of assay: Competitive ELISA uPAR binding assay (immobilized urokinase). Particulars: at the uPA binding site. The method, then:
The affinity of ARM-U2 derivatives differing in both the length of the DNP-linker substituted at position 2 of ring C and the display of negative charge density (FIG. 8, Table 1) for uPAR were assayed using a competitive ELISA binding assay. The assay involves the immobilization of urokinase, a natural high affinity ligand for uPAR followed by the addition of a fixed concentration of recombinant uPAR protein and increasing concentrations of ARM-U2 which competes with urokinase for binding to the uPA binding site of uPAR. Following several washing steps, the amount of uPAR bound is quantified by a biotinylated anti-uPAR antibody and avidin-HRP and can be fit to a competitive binding model allowing for the extraction of the uPAR/ARM-U2 Kd.
All ARM-U2 derivatives were assessed for their ability to bind selectively to recombinant uPAR in vitro using a competitive ELISA binding assay. DMSO stock solutions of each ARM-U2 derivative stored at −20° C. were titrated into wells pre-coated with human urokinase (isolated from human urine, ProSpec 1 mg/ml deI water 18.5 μM) in the presence of uPAR. Selective binding to uPAR by ARM-U2 at the uPA binding site competes with uPAR-uPA binding which is required for a positive UV 450 nm absorbance signal. Increasing concentrations of ARM-U2 displace increasing amounts of uPAR from uPA which is detected by anti-uPAR/biotin labeled antibodies followed by avidin-HRP. The sigmoidal binding isotherm of absorbance at 450 nm vs log ARM-U2 concentration can then by fit by non-linear regression analysis to obtain the IC50 for ARM-U2/uPAR binding (Equation S2) which can then be translated into a KI for ARM-U2/uPAR binding using a competitive binding model adapted from the Cheng-Prusoff equation relating KI to IC50 (Equation S3). The ELISA experiments were performed as followed: To Corning high binding 96 well flat bottom plates was added 100 μl/well of 100 nM urokinase in sterile PBS. The plates were sealed and left to incubate at 4° C. overnight. The plates were then washed 1× with 200 μl wash buffer (PBS+0.05% Tween-20) and 1× with 400 μl wash buffer. The plates were blotted on paper towel and blocked for 1 h shaking at room temp with 300 μl of a solution of thermo superblock in PBS per well. Molecule dilutions into solutions of a fixed concentration (10 nM) of uPAR were prepared in 0.025% triton-X/PBS on a separate low binding plate during the blocking hour. The plates were again washed followed by the addition of 100 μl of the ARM-U2/uPAR solution with 0.1% final DMSO concentration. The solutions were mixed by multichannel pipette, sealed, and incubated for 2 h with shaking at room temperature. The plates were then washed 1× with 200 μl wash buffer (PBS+0.05% Tween-20) and 2× with 400 μl wash buffer. The plates were blotted on a paper towel followed by the addition of 100 μl/well of a solution of biotinylated anti-uPAR antibody in 1% BSA/PBS. (R&D Systems, 3.3 μl taken from 50 μg/250 μl-1000× stock) and incubation with shaking for 1 h at room temp. The plates were washed 1× with 200 μl wash buffer and 2× with 400 μl wash buffer and blotted on a paper towel. 100 μl of avidin-HRP (stock −500× from e-bioscience) were added per well, incubated 20 min with shaking at room temp followed by washing 1× with 200 μl wash buffer and 3× with 400 μl wash buffer. The plates were blotted dry with paper towel and 100 μl of TMB substrate was added to each well. The emergence of blue color was monitored and the reaction quenched with the addition of 50 μl of 2M sulfuric acid to each well followed by measuring the absorbance at 450 nm using a fluorescence plate reader. […]

Another assay addresses T2, recombinant uPAR (Homo sapiens, UniProt Q03405).
T2 construct: purchased R&D systems
Description: Fluorescence quenching titration of ARM-U2 derivatives with uPAR. Type of assay: binding. Particulars: fluorescence titration of 100 nM derivative with increasing uPAR; read-out: Kd, solution equilibrium dissociation constant with uPAR. The method, then: Selected ARM-U2 derivatives were assayed for their ability to bind recombinant uPAR using a fluorescence quenching assay. […] Increasing concentrations of recombinant uPAR were mixed with each compound containing aliquot and the fluorescence of the solution measured following 1 h equilibration times. […] To confirm that the observation of uPAR dependent fluorescence quenching was indeed due to specific binding to uPAR and to validate ARM-U2 binding to uPAR specifically via the uPA binding site, a direct binding ELISA assay was developed. In this assay, clear 96-well high-binding plates from CoStar, were loaded with 100 μl/well of 50 nM recombinant uPAR 807-UK-100-CF from R&D systems prepared from a 100 μg/ml (approx. 2.1 μM) stock of uPAR in PBS and left overnight at room temperature to equilibrate. Following equilibration, the plate was washed with wash buffer 1× (400 μl/well of 0.05% Tween/PBS), blotted dry and blocked for 1 hr with 300 ul/well of 2% BSA/PBS. Following blocking, the plate was washed with 400 ul of the wash buffer and blotted dry. […] The absorbance at 450 nm was measured using an in-house Perkin-Elmer fluorescence plate reader.
All ARM-U2 derivatives were assessed for their ability to bind selectively to recombinant uPAR in vitro using a competitive ELISA binding assay. […] Selective binding to uPAR by ARM-U2 at the uPA binding site competes with uPAR-uPA binding which is required for a positive UV 450 nm absorbance signal. Increasing concentrations of ARM-U2 displace increasing amounts of uPAR from uPA which is detected by anti-uPAR/biotin labeled antibodies followed by avidin-HRP. The sigmoidal binding isotherm of absorbance at 450 nm vs log ARM-U2 concentration can then by fit by non-linear regression analysis to obtain the IC50 for ARM-U2/uPAR binding (Equation S2) which can then be translated into a KI for ARM-U2/uPAR binding using a competitive binding model adapted from the Cheng-Prusoff equation relating KI to IC50 (Equation S3). […]

For another assay, the system named is anti-DNP antibodies. Kind of assay: Affinity for anti-DNP antibodies. Type of assay: binding.
In the next assay the target is T3, immobilized uPAR (Homo sapiens, UniProt Q03405).
T3 construct: purchased R&D systems 807-UK-100-CF
T3 sequence (Q03405 23-305): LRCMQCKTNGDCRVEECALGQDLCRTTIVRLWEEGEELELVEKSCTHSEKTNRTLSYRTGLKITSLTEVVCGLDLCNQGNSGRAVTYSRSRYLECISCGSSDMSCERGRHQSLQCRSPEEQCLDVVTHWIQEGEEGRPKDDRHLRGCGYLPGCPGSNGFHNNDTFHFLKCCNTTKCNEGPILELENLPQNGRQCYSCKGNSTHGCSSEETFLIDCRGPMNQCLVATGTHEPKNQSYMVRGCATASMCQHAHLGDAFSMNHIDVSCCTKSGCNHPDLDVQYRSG
Kind of assay: Direct ELISA binding assay on immobilized uPAR. The method, then:
Selected ARM-U2 derivatives were assayed for their ability to bind recombinant uPAR using a fluorescence quenching assay. The compounds stored at −20° C. as DMSO stocks were diluted into PBS aliquots at a fixed 50 nM concentration. Increasing concentrations of recombinant uPAR were mixed with each compound containing aliquot and the fluorescence of the solution measured following 1 h equilibration times. […] To confirm that the observation of uPAR dependent fluorescence quenching was indeed due to specific binding to uPAR and to validate ARM-U2 binding to uPAR specifically via the uPA binding site, a direct binding ELISA assay was developed. In this assay, clear 96-well high-binding plates from CoStar, were loaded with 100 μl/well of 50 nM recombinant uPAR 807-UK-100-CF from R&D systems prepared from a 100 μg/ml (approx. 2.1 μM) stock of uPAR in PBS and left overnight at room temperature to equilibrate. Following equilibration, the plate was washed with wash buffer 1× (400 μl/well of 0.05% Tween/PBS), blotted dry and blocked for 1 hr with 300 ul/well of 2% BSA/PBS. Following blocking, the plate was washed with 400 ul of the wash buffer and blotted dry. […] The absorbance at 450 nm was measured using an in-house Perkin-Elmer fluorescence plate reader.
(An ELISA detects its analyte on a solid surface through an enzyme-linked reagent.)

T2 sequence (Q03405 23-305): as above
T1 sequence (Q03405 23-305): as above

In general, Kd refers to the concentration at which binding is half-saturated. Regarding `O=C(O)c1cccc(Nc2cc(N3CCC[C@H](C(=O)NCCCOCCOCCOCCCNc4ccc([N+](=O)[O-])cc4[N+](=O)[O-])C3)c3noc4c3c2C(=O)c2ccccc2-4)c1` [1-ABT-1], the “uPAR binding affinity (order of magnitude)” value on uPAR (uPA binding site) is listed as “triple digit nanomolar binding affinity”. Further, the Kd on recombinant uPAR was determined as 275 nM.
As for `O=C1c2ccccc2-c2onc3c(N4CCC[C@@H](C(=O)NCCCOCCOCCOCCCNc5ncccn5)C4)cc(Nc4ccc(S(=O)(=O)O)cc4S(=O)(=O)O)c1c23` [6-ABT-4], in the assay on anti-DNP antibodies, the “affinity for anti-DNP antibodies” value is given as “no affinity for anti-DNP antibodies”.
For the compound `O=C(CCCC(=O)NCCOCCOCCOCCOCCOCCOCCOCCNc1ccc([N+](=O)[O-])cc1[N+](=O)[O-])NCCOCCOCCOCCOCCOCCOCCOCCNC(=O)[C@H]1CCCN(c2cc(Nc3ccc(S(=O)(=O)O)cc3S(=O)(=O)O)c3c4c(onc24)-c2ccccc2C3=O)C1` [6-ABT-3], the Kd at recombinant uPAR came out at 18 nM.
Regarding `O=C1c2ccccc2-c2onc3c(N4CCC[C@H](C(=O)NCCOCCOCCOCCOCCOCCOCCOCCNc5ccc([N+](=O)[O-])cc5[N+](=O)[O-])C4)cc(Nc4ccc(S(=O)(=O)O)cc4S(=O)(=O)O)c1c23` [6-ABT-2], the “binding to immobilized uPAR vs parent derivative” value at immobilized uPAR was “much higher affinity than parent derivative 1-ABT-1”. Moreover, the Kd at recombinant uPAR was 66 nM.
